US11136313B2, “Compounds, compositions, and methods for modulating CFTR” (Proteostasis Therapeutics, Inc., priority 2015, dated 2021)

What follows are compounds tested against T1, ΔF508-CFTR (Homo sapiens, UniProt P13569, DEL508-508) (assay: hBE equivalent current (Ieq) assay: AUC of equivalent chloride current after forskolin/VX-770 in primary lung epithelial cells homozygous for ΔF508). Settings: relative to CFTR amplifier (Compound A)+VX-809 (3 uM), compound at 10 uM and Compound A at 3 uM, 24 h treatment.
T1 construct: Primary lung epithelial cells homozygous for the Cystic Fibrosis-causing ΔF508 mutation were differentiated for a minimum of 4 weeks; endogenous in cells; host or cells: primary lung epithelial cells (hBE) homozygous for ΔF508, differentiated at an air-liquid interface
Format: cell-based
How it was run: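 Readout is the increase over vehicle in equivalent chloride current AUC from forskolin/VX-770 addition to bumetanide, measured by current clamp at 36 °C after benzamil block of ENaC. Cultures were homozygous ΔF508 primary lung epithelium grown ≥4 weeks at air-liquid interface and exposed basolaterally to compound for 24 h.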

T1 sequence (P13569 with tags, fused parts or gaps DEL508-508): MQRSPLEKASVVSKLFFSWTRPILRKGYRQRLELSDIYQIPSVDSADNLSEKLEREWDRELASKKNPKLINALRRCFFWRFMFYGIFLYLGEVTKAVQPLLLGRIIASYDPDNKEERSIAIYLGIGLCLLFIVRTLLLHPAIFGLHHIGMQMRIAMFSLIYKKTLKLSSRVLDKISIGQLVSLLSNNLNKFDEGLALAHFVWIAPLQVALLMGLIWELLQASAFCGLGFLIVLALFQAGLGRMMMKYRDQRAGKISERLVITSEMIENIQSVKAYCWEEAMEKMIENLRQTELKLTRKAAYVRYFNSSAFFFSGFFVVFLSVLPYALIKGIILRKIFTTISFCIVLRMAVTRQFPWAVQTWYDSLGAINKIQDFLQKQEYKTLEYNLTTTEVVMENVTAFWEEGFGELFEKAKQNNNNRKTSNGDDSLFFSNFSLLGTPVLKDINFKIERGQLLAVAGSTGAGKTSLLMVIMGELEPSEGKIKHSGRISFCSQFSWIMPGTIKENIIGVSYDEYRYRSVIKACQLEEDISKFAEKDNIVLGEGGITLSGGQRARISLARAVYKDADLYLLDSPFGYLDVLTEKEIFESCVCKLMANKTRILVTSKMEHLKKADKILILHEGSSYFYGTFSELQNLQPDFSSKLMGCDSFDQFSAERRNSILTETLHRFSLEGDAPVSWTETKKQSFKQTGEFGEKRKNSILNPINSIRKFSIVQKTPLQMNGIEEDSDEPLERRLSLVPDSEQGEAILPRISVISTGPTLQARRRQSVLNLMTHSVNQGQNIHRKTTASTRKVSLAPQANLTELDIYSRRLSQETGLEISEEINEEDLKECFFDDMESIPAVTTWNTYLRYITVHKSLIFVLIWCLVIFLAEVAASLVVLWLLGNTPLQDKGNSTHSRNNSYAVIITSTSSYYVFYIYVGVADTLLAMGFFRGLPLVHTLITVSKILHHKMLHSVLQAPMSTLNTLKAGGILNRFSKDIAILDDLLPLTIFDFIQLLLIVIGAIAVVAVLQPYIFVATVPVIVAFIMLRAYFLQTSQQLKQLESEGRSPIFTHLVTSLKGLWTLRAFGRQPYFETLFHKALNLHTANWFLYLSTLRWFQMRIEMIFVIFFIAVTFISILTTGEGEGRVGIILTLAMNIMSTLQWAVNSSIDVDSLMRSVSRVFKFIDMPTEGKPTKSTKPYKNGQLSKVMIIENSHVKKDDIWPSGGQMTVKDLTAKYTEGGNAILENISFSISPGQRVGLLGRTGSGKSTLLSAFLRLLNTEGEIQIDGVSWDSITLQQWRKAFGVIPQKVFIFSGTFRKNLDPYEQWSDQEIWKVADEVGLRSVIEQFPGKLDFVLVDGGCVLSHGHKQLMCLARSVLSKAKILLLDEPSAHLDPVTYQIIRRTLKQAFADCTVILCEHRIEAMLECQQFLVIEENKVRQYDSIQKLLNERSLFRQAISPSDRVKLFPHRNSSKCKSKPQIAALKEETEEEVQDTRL

| Compound | Activity |
| --- | --- |
| Cc1c(-c2cc(C(=O)[O-])c3c(OCc4ccccc4F)ccc(C)c3n2)sc2ccccc12.[Na+] [Compound 289, Sodium 5-[(2-Fluorophenyl)methoxy]-8-methyl-2-(3-methyl-1-benzothiophen-2-yl)quinoline-4-carboxylate] | ++ (activity>50% of CFTR amplifier+VX-809 (3 uM) with compound at 10 uM and Compound A at 3 uM) |
| Cc1ccc(C)c2c(C(=O)O)cc(-c3cc4ccccc4o3)nc12 [Compound 10, 2-(1-Benzofuran-2-yl)-5,8-dimethylquinoline-4-carboxylic acid] | + (activity<50% of an CFTR amplifier (Compound A)+VX-809 (3 uM) with compound at 10 uM and Compound A at 3 uM) |
| Cc1ccc(O[C@@H](C)c2ccccc2)c2c(C(=O)[O-])cc(-c3cc4ccccn4n3)nc12.[Na+] [Compound 209] | + (activity<50% of an CFTR amplifier (Compound A)+VX-809 (3 uM) with compound at 10 uM and Compound A at 3 uM) |
| CCc1ccc(OCCc2cccnc2)c2c(C(=O)O)cc(-c3sc4ccccc4c3C)nc12 [Compound 141, 8-Ethyl-2-(3-methyl-1-benzothiophen-2-yl)-5-[2-(pyridin-3-yl)ethoxy]quinoline-4-carboxylic Acid] | + (activity<50% of an CFTR amplifier (Compound A)+VX-809 (3 uM) with compound at 10 uM and Compound A at 3 uM) |
| COCC[C@@H](Oc1ccc(C)c2nc(-c3sc4ccccc4c3C)cc(C(=O)[O-])c12)c1ccccc1.[Na+] [Compound 313] | ++ (activity>50% of CFTR amplifier+VX-809 (3 uM) with compound at 10 uM and Compound A at 3 uM) |
| Cc1c(-c2cc(C(=O)[O-])c3c(OC[C@@H]4C[C@H]5CC[C@@H](C4)O5)ccc(C)c3n2)oc2ccccc12.[Na+] [Compound 356] | ++ (activity>50% of CFTR amplifier+VX-809 (3 uM) with compound at 10 uM and Compound A at 3 uM) |
| Cc1c(-c2cc(C(=O)[O-])c3c(OC4CCOCC4)ccc(C)c3n2)sc2ccccc12.[Na+] [Compound 331] | ++ (activity>50% of CFTR amplifier+VX-809 (3 uM) with compound at 10 uM and Compound A at 3 uM) |
| CCc1ccc(OC2CCCCC2)c2c(C(=O)O)cc(-c3csc4ccccc34)nc12 [Compound 159, 2-(1-Benzothiophen-3-yl)-5-(cyclohexyloxy)-8-ethylquinoline-4-carboxylic acid] | ++ (activity>50% of CFTR amplifier+VX-809 (3 uM) with compound at 10 uM and Compound A at 3 uM) |
| Cc1c(-c2cc(C(=O)O)c3c(OCc4ccccc4)ccc(C#N)c3n2)oc2ccccc12 [Compound 112, 5-(benzyloxy)-8-cyano-2-(3-methyl-1-benzofuran-2-yl)quinoline-4-carboxylic Acid] | ++ (activity>50% of CFTR amplifier+VX-809 (3 uM) with compound at 10 uM and Compound A at 3 uM) |
| Cc1c(-c2cc(C(=O)[O-])c3c(O[C@H](C)c4ccccc4)ccc(C)c3n2)oc2ccccc12.[Na+] [Compound 212] | ++ (activity>50% of CFTR amplifier+VX-809 (3 uM) with compound at 10 uM and Compound A at 3 uM) |
| Cc1c(-c2cc(C(=O)[O-])c3c(OC[C@H]4C[C@](C)(O)C4)ccc(C)c3n2)oc2ccccc12.[Na+] [Compound 375] | ++ (activity>50% of CFTR amplifier+VX-809 (3 uM) with compound at 10 uM and Compound A at 3 uM) |
